Assay results published in patent publication US12435308B2, “Immunomodulation by amniotic fluid mesenchymal stem cells” (Amniotics AB, priority 2020, dated 2025).

Assays:
[1] = tested on: human PBMCs activated with anti-CD3/anti-CD28; assay: PBMC:MSC co-culture ex vivo assay, FACS analysis (cell composition)
Protocol: (§1) For ex vivo analysis, freshly isolated human PBMCs, pooled from three donors, were activated with anti-CD3/anti-CD28 at 10 μg/ml and 5 μg/ml respectively in presence of MSCs ex vivo for 24-72 hours. Following activation, cells were analyzed for effects on cellular composition and cell proliferation using CFSE. In addition, supernatants were analyzed for cytokine levels using Luminex.
(§2) In this example, Peripheral Blood Mononuclear Cells (PBMCs) were isolated from leucocyte concentrate from three different donors (acquired from Blodcentralen, Lunds Universitetssjukhus, Lund, Sweden) through gradient centrifugation using Ficoll. Red blood cells (RBCs) were lysed using lysis buffer (3 min, RT), cells were washed and the isolated PBMCs were pooled. Cell concentration was determined using a Scepter cell counter (Millipore Merck, MA, USA). Cells were diluted to 1×10^7 cells/ml in PBS. Pooled PBMCs were split into 2 different tubes. Pool one was stained with CFSE at 5 μM for 5 minutes (dark, RT). CFSE stained cells were washed with an equal volume of FBS to stop the reaction and washed again with PBS. Pool 2 was left in PBS.
(§3) All cells (PBMCs and MSCs) were diluted in two different cell culture media (M3 and M4) at 2*10^6 cells/ml. Media was supplemented with anti-CD28 at 5 μg/ml. Cells were added to anti-CD3 (10 μg/ml) coated U bottom cell culture plates according to layout below, 200 μl/well in different PBMC:MSC ratios (1:10, 1:5, 1:2.5, 1:0 and 0:1).
(§4) Included were also controls (stimulated and unstimulated PBMCs) and two reference drugs, e.g., cyclosporine (CsA) and Prednisolone. When plating controls, cells were spun down and diluted in media 3 or 4 at 4*10^6 cells/ml. 100 μl PBMCs were added per well. CsA was added at a final concentration of 10 μg/ml and Prednisolone was added at a final concentration of 125 nM. Medium was added to unstimulated control wells. Control cells (AD-MSC) were also analyzed. Cells were incubated for 24-72 hours at 37° C., 5% CO2.
Following 24 hours of incubation, cells in FACS/Luminex plates were stained with CD73, CD4, CD8, CD80, CD206, CD163 and PD-1. Briefly, cells were transferred to V bottom plates and centrifuged at 360×g for 2 min. Supernatant was transferred to a storage plate and put in −20° C. until analysis using Luminex. Cells were washed in PBS, centrifuged at 360×g for 2 min at 4° C. Supernatant was flicked off and surface markers were added. Cells were incubated at +4° C. for 20 minutes (dark). After incubation, cells were washed 1× in PBS, centrifuged at 360×g for 2 min at 4° C. Cells were resuspended in PBS and analyzed using the Attune Nxt flow cytometer. Compensation was performed using beads—AbC Total Compensation capture beads and negative beads. Since compensation was done using beads, FSC and SSC were changed before analyzing samples and adjusted to suit cells.

[2] = tested on: human PBMCs activated with anti-CD3/anti-CD28; assay: PBMC:MSC co-culture ex vivo assay, FACS analysis (CFSE proliferation)
Protocol: as §1, §2, §3, §4
To continue with this example, after 72 hours of incubation, CFSE stained cells were stained with CD4, CD8, CD80, CD206 and CD163. Briefly, cells were transferred to V bottom plates, centrifuged at 360×g for 2 min. Cells were washed in PBS, centrifuged at 360×g for 2 min at 4° C. Supernatant was flicked off and surface markers were added. Cells were incubated at +4° C. for 20 minutes. After incubation, cells were washed 1× in PBS, centrifuged at 360×g for 2 min at 4° C. Cells were resuspended in PBS and analyzed using flow cytometry. Compensation was performed using beads—AbC Total Compensation capture beads and negative beads. Since compensation was done using beads, FSC and SSC were changed before analyzing samples and adjusted to suit cells.
The inhibitory effect was calculated according to the two formulas below: […]

[3] = CFSE plates, 72 hours of incubation

C[C@]12C=CC(=O)C=C1CC[C@@H]1[C@@H]2[C@@H](O)C[C@@]2(C)[C@H]1CC[C@]2(O)C(=O)CO [Prednisolone]
% cytotoxic T cells (CD8+ lymphocytes) [1]: lower levels
expression level of CD73+M1 ([1]; 24 hours of incubation): lower expression level
expression level of CD73+M2 ([1]; 24 hours of incubation): lower expression level
% T helper cells (CD4+ lymphocytes) ([1]; 24 hours of incubation, versus control): higher levels
macrophage polarization (shift towards M2) ([1]; assay controls, cell composition): shift towards M2
effect on cytotoxic T cells [2]: no effect
effect on M1 expression level [2, 3]: no effect
effect on M2 expression level [2, 3]: no effect
effect on T helper cells [2, 3]: no effect
